pEC50: −log10 of the molar value. Counter-ions that a name gives are not always drawn. Like-named read-outs stand apart in the source and are kept apart here.

This test deals with T1, FSHR (Homo sapiens, UniProt P23945).
T1 construct: expressed in transfected cells; host or cells: CHO (Cho-FSHR-LUC-1-1-43)
T1 sequence (P23945 18-695): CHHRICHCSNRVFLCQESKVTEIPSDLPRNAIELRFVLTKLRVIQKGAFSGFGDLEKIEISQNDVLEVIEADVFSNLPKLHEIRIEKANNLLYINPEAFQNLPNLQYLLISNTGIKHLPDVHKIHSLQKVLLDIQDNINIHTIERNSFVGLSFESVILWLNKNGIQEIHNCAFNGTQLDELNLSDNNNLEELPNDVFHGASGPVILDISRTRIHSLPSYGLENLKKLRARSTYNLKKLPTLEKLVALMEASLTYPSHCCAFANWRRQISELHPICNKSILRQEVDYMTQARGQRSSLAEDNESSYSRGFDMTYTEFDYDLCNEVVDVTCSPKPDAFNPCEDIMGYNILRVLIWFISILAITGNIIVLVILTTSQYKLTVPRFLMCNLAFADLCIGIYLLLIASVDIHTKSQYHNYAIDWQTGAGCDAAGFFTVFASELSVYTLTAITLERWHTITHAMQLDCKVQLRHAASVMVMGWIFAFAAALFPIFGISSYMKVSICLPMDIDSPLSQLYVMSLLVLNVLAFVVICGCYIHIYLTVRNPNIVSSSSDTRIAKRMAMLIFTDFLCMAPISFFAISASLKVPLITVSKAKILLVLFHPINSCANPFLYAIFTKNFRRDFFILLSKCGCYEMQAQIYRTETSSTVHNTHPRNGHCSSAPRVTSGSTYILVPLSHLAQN
Kind of test: EC50 of cyclic AMP production in CHO FSHR cells + EC20 FSH (Assay A). It counts as cell-based. The protocol: EC50 of Cyclic AMP Production in CHO FSHR Cells+EC20 FSH (Assay A)
2500 Cho-FSHR-LUC-1-1-43 cells were plated per well in 5 μl of phenol red free DMEM/F12+1% FBS. Cells were plated in 384 well, solid white low volume plates (Greiner 784075) by Multidrop. Cells were assayed by adding 100 μl of 2×EC20 FSH/IBMX in DMEM/F12+0.1% BSA) by Multidrop to 2 μl of test compound stamped in 384 well plates (compounds are diluted 1:50). The final FSH concentration was […], and the final IBMX concentration was 200 μM. The compound plate map was as follows: Column 1: 2 μl of DMSO; Column 2: 2 μl of DMSO; Columns 3-12 and 13-24: 2 μl of test compound, diluted 1:4 in 100% DMSO, or 2 μl of FSH, diluted 1:4 in DMEM/F12+0.1% BSA. The starting concentration for FSH was 50 nM (final concentration was 0.5 nM). Furthermore, Column 23 contained 2 μl of EC100 FSH reference (100×) (diluted in DMEM/F12+0.1% BSA) at a final concentration of 0.5 nM, and Column 24 contained 2 μl of 1 mM AS707664/2 reference compound 2. 5 μl of compound+EC20 FSH mixture were transferred to cell plates (1:2 dilution into 5 μl of cell media) The plates were incubated at 37° C. for 1 h. 10 μl of mixed HTRF (CisBio #62AM4PEC) reagents were added per well and incubated at room temperature for 1 h. The plates were read on Envision using the cAMP HTRF—low volume 384 well protocol. The readout was the calculated fluorescence ratio (665 nm/620 nm). Values given in percent (%) indicate the percental effect (response) at a certain concentration of agonist relative to the maximum response of the FSH standard.

Where [1] appears, read: CHO FSHR cells + EC20 FSH, cAMP HTRF, read-out: Assay A: EC50 of cyclic AMP production.

The pEC50 is the EC50 on a negative log10 scale, so that one unit is a factor of ten. Consider `[2H]C([2H])([2H])OCC1(C)CCCN1C(=O)c1nn(-c2ccsc2)c2c1COc1cc(OC)c(C=C(C)C)cc1-2` (stereo not drawn) [Compound 51], for which the pEC50 under setting [1] was above 7.00. For the compound `COc1cc2c(cc1C=C(C)C)-c1c(c(C(=O)N3CCCC3(C)CO)nn1-c1ccsc1)CO2` (stereo not drawn) [Compound 48, (2-Hydroxymethyl-2-methyl-pyrrolidin-1-yl)-[7-methoxy-8-(2-methyl-propenyl)-1-thiophen-3-yl-1,4-dihydro-chromeno[4,3-c]pyrazol-3-yl]-methanone], under setting [1], the pEC50 is above 7.00. In the case of `COCC(C)(C)N(C)C(=O)c1nn(-c2ccsc2)c2c1COc1cc(OC)c(C=C(C)C)cc1-2` [Compound 31], the pEC50 was above 7.00. Turning to `COc1cc2c(cc1C=C(C)C)-c1c(c(C(=O)NCCCc3nnn[nH]3)nn1-c1ccsc1)CO2` [Compound 11, 7-Methoxy-8-(2-methyl-propenyl)-1-thiophen-3-yl-1,4-dihydro-chromeno[4,3-c]pyrazole-3-carboxylic acid [3-(1H-tetrazol-5-yl)-propyl]-amide; trifluoro-acetic acid salt], the pEC50 under setting [1] is 5.30 to 6.00.

Regarding `COc1cc2c(cc1-c1ccnn1C)-c1c(c(C(=O)N(C)CC3(C)COC3)nn1-c1ccsc1)CO2` [Compound 110, 7-Methoxy-8-(2-methyl-2H-pyrazol-3-yl)-1-thiophen-3-yl-1,4-dihydro-chromeno[4,3-c]pyrazole-3-carboxylic acid methyl-(3-methyl-oxetan-3-ylmethyl)-amide], the negative logarithm of the EC50 (pEC50) under setting [1] is above 7.00. For `COc1cc2c(cc1-c1cc(C)n(C)c1C)-c1c(c(C(=O)N3CCOCC3(C)C)nn1-c1ccsc1)CO2` [Compound 120, (3,3-Dimethyl-morpholin-4-yl)-[7-methoxy-1-thiophen-3-yl-8-(1,2,5-trimethyl-1H-pyrrol-3-yl)-1,4-dihydro-chromeno[4,3-c]pyrazol-3-yl]-methanone], the pEC50 under setting [1] is above 7.00. With `COc1cc2c(cc1C=C(C)C)-c1c(c(C(=O)N3CCCC(C(=O)N(C)C)CC3)nn1-c1ccsc1)CO2` (stereo not drawn) [Compound 41, 1-[7-Methoxy-8-(2-methyl-propenyl)-1-thiophen-3-yl-1,4-dihydro-chromeno[4,3-c]pyrazole-3-carbonyl]-azepane-4-carboxylic Acid Dimethylamide], the pEC50 under setting [1] is 6.00 to 7.00. As to `COc1cc2c(cc1-c1ccn(C)n1)-c1c(c(C(=O)N[C@H]3CC[C@@H](O)C3)nn1-c1ccsc1)CO2` [Compound 172, 7-Methoxy-8-(1-methyl-1H-pyrazol-3-yl)-1-thiophen-3-yl-1,4-dihydro-chromeno[4,3-c]pyrazole-3-carboxylic acid ((1S,3R)-3-hydroxy-cyclopentyl)-amide], the pEC50 under setting [1] was below 5.30. Same read-out and setting: with `COc1cc2c(cc1-c1cnoc1)-c1c(c(C(=O)N(C)C(C)(C)C)nn1-c1ccsc1)CO2` [Compound 72, 8-Isoxazol-4-yl-7-methoxy-1-thiophen-3-yl-1,4-dihydro-chromeno[4,3-c]pyrazole-3-carboxylic acid tert-butyl-methyl-amide] the figure was above 7.00. For `COc1cc2c(cc1C1=CCCO1)-c1c(c(C(=O)N(C)C(C)(C)C)nn1-c1ccsc1)CO2` [Compound 74, 8-(4,5-Dihydro-furan-2-yl)-7-methoxy-1-thiophen-3-yl-1,4-dihydro-chromeno[4,3-c]pyrazole-3-carboxylic acid tert-butyl-methyl-amide], the pEC50 under setting [1] is above 7.00.

Take `COc1cc2c(cc1OC(C)C)-c1c(c(C(=O)N3CCCC(C(=O)O)CC3)nn1-c1ccsc1)CO2` (stereo not drawn) [Compound 25, 1-(8-Isopropoxy-7-methoxy-1-thiophen-3-yl-1,4-dihydro-chromeno[4,3-c]pyrazole-3-carbonyl)-azepane-4-carboxylic acid]: under setting [1], the pEC50 was below 5.30. For the compound `[2H]C([2H])([2H])O[C@@H]1CC[C@H](N(C(=O)c2nn(-c3ccsc3)c3c2COc2cc(OC)c(-c4ccn(C)n4)cc2-3)C([2H])([2H])[2H])C1` [Compound 177], under setting [1], the pEC50 was 5.30 to 6.00.

As for `COc1cc2c(cc1C=C(C)C)-c1c(c(C(=O)NC3CCCC(C(=O)OC(C)(C)C)C3)nn1-c1ccsc1)CO2` (stereo not drawn) [Compound 15, 3-{[7-Methoxy-8-(2-methyl-propenyl)-1-thiophen-3-yl-1,4-dihydro-chromeno[4,3-c]pyrazole-3-carbonyl]-amino}-cyclohexanecarboxylic acid tert-butyl ester], under setting [1], the pEC50 was below 5.30. Still for that read-out and setting: the value for `COc1cc2c(cc1C=C(C)C)-c1c(c(C(=O)N3CCCC(NC(=O)C4CCC4)CC3)nn1-c1ccsc1)CO2` (stereo not drawn) [Compound 37, Cyclobutanecarboxylic acid {1-[7-methoxy-8-(2-methyl-propenyl)-1-thiophen-3-yl-1,4-dihydro-chromeno[4,3-c]pyrazole-3-carbonyl]-azepan-4-yl}-amide] was 5.30 to 6.00; that for `[2H]C([2H])([2H])N(CCN1CCOC1=O)C(=O)c1nn(-c2ccsc2)c2c1COc1cc(OC)c(-c3cn[nH]c3)cc1-2` [Compound 85] was above 7.00. For the compound `COc1cc2c(cc1-c1c(C)cnn1C)-c1c(c(C(=O)N(C)C(C)(C)C)nn1-c1ccsc1)CO2` [Compound 76, 8-(2,4-Dimethyl-2H-pyrazol-3-yl)-7-methoxy-1-thiophen-3-yl-1,4-dihydro-chromeno[4,3-c]pyrazole-3-carboxylic acid tert-butyl-methyl-amide], the negative logarithm of the EC50 (pEC50) under setting [1] is above 7.00. `COc1cc2c(cc1-c1ccn(C(C)C)n1)-c1c(c(C(=O)N3CCOCC3(C)C)nn1-c1ccsc1)CO2` [Compound 195, (3,3-Dimethyl-morpholin-4-yl)-[8-(1-isopropyl-1H-pyrazol-3-yl)-7-methoxy-1-thiophen-3-yl-1,4-dihydro-chromeno[4,3-c]pyrazol-3-yl]-methanone]: the negative logarithm of the EC50 (pEC50) under setting [1] was above 7.00. As for `[2H]C([2H])([2H])OCC(C)(C)NC(=O)c1nn(-c2ccsc2)c2c1COc1cc(OC)c(C=C(C)C)cc1-2` [Compound 59], under setting [1], the pEC50 was 6.00 to 7.00. For `COc1cc2c(cc1C(O)C(C)(C)O)-c1c(c(C(=O)N(C)C(C)(C)C)nn1-c1ccsc1)CO2` (stereo not drawn) [Compound 38, 8-(1,2-Dihydroxy-2-methyl-propyl)-7-methoxy-1-thiophen-3-yl-1,4-dihydro-chromeno[4,3-c]pyrazole-3-carboxylic Acid tert-butyl-methyl-amide], the pEC50 under setting [1] is 5.30 to 6.00. With `COc1cc2c(cc1-c1cn(C)nc1C)-c1c(c(C(=O)N3CCOCC3(C)C)nn1-c1ccsc1)CO2` [Compound 123, (3,3-Dimethyl-morpholin-4-yl)-[8-(1,3-dimethyl-1H-pyrazol-4-yl)-7-methoxy-1-thiophen-3-yl-1,4-dihydro-chromeno[4,3-c]pyrazol-3-yl]-methanone], the negative logarithm of the EC50 (pEC50) under setting [1] is above 7.00.

For `COc1cc2c(cc1C=C(C)C)-c1c(c(C(=O)NCCCNC(=O)C3CCC3)nn1-c1ccsc1)CO2` [Compound 57, 7-methoxy-8-(2-methyl-propenyl)-1-thiophen-3-yl-1,4-dihydro-chromeno[4,3-c]pyrazole-3-carboxylic Acid [3-(cyclobutanecarbonyl-amino)-propyl]-amide], the pEC50 under setting [1] is 5.30 to 6.00. Turning to `CNC(=O)c1nn(-c2ccsc2)c2c1COc1cc(OC)c(-c3cn[nH]c3)cc1-2` [Compound 22, 7-Methoxy-8-(1H-pyrazol-4-yl)-1-thiophen-3-yl-1,4-dihydro-chromeno[4,3-c]pyrazole-3-carboxylic Acid Methylamide], under setting [1], the pEC50 was 5.30 to 6.00.

With `COc1cc2c(cc1C=C(C)C)-c1c(c(C(=O)N(C)CCN(C)C(C)=O)nn1-c1ccsc1)CO2` [Compound 34], the pEC50 under setting [1] was above 7.00. Regarding `COc1cc2c(cc1-c1cnc(C)s1)-c1c(c(C(=O)N(C)C(C)(C)C)nn1-c1ccsc1)CO2` [Compound 73, 7-Methoxy-8-(2-methyl-thiazol-5-yl)-1-thiophen-3-yl-1,4-dihydro-chromeno[4,3-c]pyrazole-3-carboxylic acid tert-butyl-methyl-amide], the pEC50 under setting [1] is above 7.00.
